Measured values from ChEMBL document CHEMBL4699551, “Bromotryptamine and Imidazole Alkaloids with Anti-inflammatory Activity from the Bryozoan Flustra foliacea” (J Nat Prod, 2020).
Active and inactive are the calls of the source. The calls are words filed in the database; no cut-off is given here.

Key:
Dendritic cell [1] = assay: Antiinflammatory activity in human monocytes-derived dendritic cells assessed as decrease in IL-12p40 secretion at 10 ug/ml after 24 hrs by ELISA method relative to control; assay type: functional; set-up: scale not given: the % may be the effect or the level left
Dendritic cell [2] = assay: Cytotoxicity against human monocytes-derived dendritic cells assessed as reduction in cell viability after 10 ug/ml after 24 hrs by trypan blue staining based assay; details: dose 10 µg/ml
Dendritic cell [3] = assay: Antiinflammatory activity in human monocytes-derived dendritic cells assessed as increase in IL-10 secretion at 10 ug/ml after 24 hrs by ELISA method relative to control; assay type: functional
Dendritic cell [4] = assay: Antiinflammatory activity in human monocytes-derived dendritic cells assessed as decrease in IL-12p40 secretion after 24 hrs by ELISA method relative to control; assay type: functional, cell-based

For `CO[C@H](c1[nH]c2cc(Br)ccc2c1CCN(C)C)[C@@H](O)C(C)(C)O`, the Activity (Dendritic cell [1]; dose 10 µg/ml) was 45% and the Activity (Dendritic cell [2]) was “Non-Toxic”.

`C/C(=C\C(=O)NCCc1c[nH]cn1)CCCC(C)(C)O` was tested, and the Activity (Dendritic cell [3]; dose 10 µg/ml) was 19%.

In the case of `CC(C)C(=O)c1c(CCN(C)C)c2ccc(Br)cc2[nH]c1=O`, the Activity (Dendritic cell [1]; dose 10 µg/ml) is reported as 45% and the Activity (Dendritic cell [2]) is reported as “Non-Toxic”.

In the case of `CNCC[C@]1(O)C(=O)N(CC=C(C)C)c2cc(Br)ccc21`, the Activity (Dendritic cell [1]; dose 10.0 µg/ml) is reported as “inactive” and the Activity (Dendritic cell [3]; dose 10.0 µg/ml) is reported as “inactive”.

In the case of `C=CC(C)(C)c1c(CCNC)c2ccc(Br)cc2n1C.O=C(O)C(F)(F)F`, the Activity (Dendritic cell [1]; dose 10 µg/ml) is reported as 45% and the Activity (Dendritic cell [2]) is reported as “Non-Toxic”.

`C=CC(C)(C)[C@@]12CCN(C)[C@@H]1N(CC(O)C(C)(C)O)c1cc(Br)ccc12` (some centres not stated) was tested, and the Activity (Dendritic cell [1]; dose 10.0 µg/ml) was “inactive” and the Activity (Dendritic cell [3]; dose 10.0 µg/ml) was “inactive”.

With `O=C(O)C(F)(F)F.O=Cc1c[nH]c2cc(Br)ccc12` the Activity (Dendritic cell [1]; dose 10 µg/ml) was 45% and the Activity (Dendritic cell [2]) was “Non-Toxic”.

For `C=CC(C)(C)c1[nH]c2cc(Br)ccc2c1CC[N+]1(C)CCOC1` (configuration not stated), the Activity (Dendritic cell [1]; dose 10 µg/ml) was 45% and the Activity (Dendritic cell [2]) was “Non-Toxic”.

With `CC(C)=CC[C@@]12CCN(C)[C@@H]1N(CC(O)C(C)(C)O)c1cc(Br)ccc12` (some centres not stated) the Activity (Dendritic cell [1]; dose 10.0 µg/ml) was “inactive” and the Activity (Dendritic cell [3]; dose 10.0 µg/ml) was “inactive”.

In the case of `CC(C)=CC[C@@]12CCN(C)[C@@H]1N(C(O)C(O)C(C)(C)O)c1cc(Br)ccc12` (some centres not stated), the Activity (Dendritic cell [1]; dose 10.0 µg/ml) is reported as “inactive” and the Activity (Dendritic cell [3]; dose 10.0 µg/ml) is reported as “inactive”.

With `C=CC(C)(C)[C@@]12CCN(C)[C@@H]1N(C(OC)C(O)C(C)(C)O)c1cc(Br)ccc12` (some centres not stated) the Activity (Dendritic cell [1]; dose 10.0 µg/ml) was “inactive” and the Activity (Dendritic cell [3]; dose 10.0 µg/ml) was “inactive”.

`CC(C)=CC[C@@]12CCN(C)[C@@H]1Nc1cc(Br)ccc12` was tested, and the Activity (Dendritic cell [1]; dose 10.0 µg/ml) was “inactive” and the Activity (Dendritic cell [3]; dose 10.0 µg/ml) was “inactive”.

For `CC(C)=CCN1c2cc(Br)ccc2[C@]2(CC=C(C)C)CCN(C)[C@H]12`, the Activity (Dendritic cell [1]; dose 10.0 µg/ml) was “inactive” and the Activity (Dendritic cell [3]; dose 10.0 µg/ml) was “inactive”.

For `C=CC(C)(C)C(=O)Nc1cc(Br)ccc1C(=O)O`, the Activity (Dendritic cell [1]; dose 10 µg/ml) was 45% and the Activity (Dendritic cell [2]) was “Non-Toxic”.

In the case of `C=CC(C)(C)[C@@]12CCN(C)[C@@H]1N(C(O)C(O)C(C)(C)O)c1cc(Br)ccc12` (some centres not stated), the Activity (Dendritic cell [1]; dose 10.0 µg/ml) is reported as “inactive” and the Activity (Dendritic cell [3]; dose 10.0 µg/ml) is reported as “inactive”.

`C=CC(C)(C)[C@@]12CCN(C)C1=Nc1cc(Br)ccc12` was tested, and the Activity (Dendritic cell [1]; dose 10.0 µg/ml) was “inactive” and the Activity (Dendritic cell [3]; dose 10.0 µg/ml) was “inactive”.

`CC1=C[C@H]2[C@@H]([C@@H](c3[nH]c4cc(Br)ccc4c3CCN(C)C)[C@]34CC[N+](C)(C)[C@]23Nc2cc(Br)ccc24)C(C)(C)C1` (relative stereo) showed an Activity (Dendritic cell [3]; dose 10 µg/ml) of 19%.

For `CC(C)=CC[C@@]12CCN(C)[C@@H]1Nc1c(Br)ccc(O)c12`, the Activity (Dendritic cell [1]; dose 10.0 µg/ml) was “inactive” and the Activity (Dendritic cell [3]; dose 10.0 µg/ml) was “inactive”.

`CN(C)CCc1c[nH]c2cc(Br)ccc12.O=C(O)C(F)(F)F` was tested, and the Activity (Dendritic cell [1]; dose 10 µg/ml) was 45% and the Activity (Dendritic cell [2]) was “Non-Toxic”.

In the case of `C=CC(C)(C)[C@@]12CCN(C)[C@@H]1N(CC=C(C)C)c1cc(Br)ccc12`, the Activity (Dendritic cell [1]; dose 10.0 µg/ml) is reported as “inactive” and the Activity (Dendritic cell [3]; dose 10.0 µg/ml) is reported as “inactive”.

With `CNCCc1cn(CC=C(C)C)c2cc(Br)ccc12.O=C(O)C(F)(F)F` the IC50 (Dendritic cell [4]) was 2900 nM, the Activity (Dendritic cell [1]; dose 10 µg/ml) was 45% and the Activity (Dendritic cell [2]) was “Non-Toxic”.

In the case of `C=CC(C)(C)[C@@]12CCN(C)[C@@H]1N(C)c1cc(Br)ccc12`, the Activity (Dendritic cell [1]; dose 10.0 µg/ml) is reported as “inactive” and the Activity (Dendritic cell [3]; dose 10.0 µg/ml) is reported as “inactive”.

`C=CC(C)(C)[C@@]12CCN[C@@H]1Nc1cc(Br)ccc12` was tested, and the Activity (Dendritic cell [1]; dose 10.0 µg/ml) was “inactive” and the Activity (Dendritic cell [3]; dose 10.0 µg/ml) was “inactive”.

In the case of `C=CC(C)(C)[C@@]1(CCNC)C(=O)Nc2cc(Br)ccc21`, the Activity (Dendritic cell [1]; dose 10.0 µg/ml) is reported as “inactive” and the Activity (Dendritic cell [3]; dose 10.0 µg/ml) is reported as “inactive”.
